Legend:
hS1P1R (hEdg1) = target: T1, hS1P1R (hEdg1) (Homo sapiens, UniProt P21453); experiment: hS1P1R GTPγS Binding Assay (Assay 3a); type: biochemical
T1 construct: purchased Lonza
Description: The hS1P1R GTPγS binding assay was carried out at room temperature in 96 well non-binding surface assay plates. The reaction in each well contained 4 μg hS1P1R (hEdg1) membrane protein (Lonza), 30 μM GDP, 0.1 nM [^35S]GTPγS, 0.25% fatty acid free BSA, and serially diluted hS1P1R agonist compound in 200 μL assay buffer (25 mM Tris-HCl PH 7.9, 100 mM NaCl, 3 mM MgCl2, and 0.2 mM EGTA). After one hour of incubation, 0.9 mg of WGA (Wheat Germ Agglutinin) SPA beads in 50 μL of assay buffer was added to each well. The SPA beads were spun down after an additional one hour incubation. The radioactivity of the bound GTPγS was counted by reading the assay plate using a MicroBeta.
Assay 1 is the CNG cAMP Assay as described in Biological Example 1. Assay 2a and 2b are the Tango™ β-arrestin Recruitment Assay in HEK293 and U2OS cells, respectively, as described in Biological Example 2. Assay 3a is the hS1P1R GTPγS Binding Assay as described in Biological Example 3. Assay 3b is the GTP-Eu Binding Assay as described in Biological Example 3. EC50's were measured unless otherwise noted. […] In the table, “nt” means the Compound was not tested and “no” means the compound was tested but had no measurable activity under the assay conditions employed.

S1P1 [1] = target: T2, S1P1 (Homo sapiens, UniProt P21453); experiment: Tango β-arrestin Recruitment Assay in HEK293 cells (Assay 2a); type: cell-based; set-up: linker with TEV protease (N1a) cleavage site (C); host or cells: HEK293, transiently transfected; conditions: Tango β-arrestin Recruitment Assay, read-out: Assay 2a EC50
Outline: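 HEK293 cells transiently expressing S1P1 (TEV-cleavable tTA fusion) with β-arrestin2–TEV; compounds up to 10 μM, 10-point 3-fold, 1% DMSO, 30 min then 16–18 h at 37 °C. Luciferase luminescence normalised to 5 μM S1P as 100% and DMSO as background; EC50 from percent-activity curves.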
Target sequence in this assay (P21453 whole entry, the tested form may be a part): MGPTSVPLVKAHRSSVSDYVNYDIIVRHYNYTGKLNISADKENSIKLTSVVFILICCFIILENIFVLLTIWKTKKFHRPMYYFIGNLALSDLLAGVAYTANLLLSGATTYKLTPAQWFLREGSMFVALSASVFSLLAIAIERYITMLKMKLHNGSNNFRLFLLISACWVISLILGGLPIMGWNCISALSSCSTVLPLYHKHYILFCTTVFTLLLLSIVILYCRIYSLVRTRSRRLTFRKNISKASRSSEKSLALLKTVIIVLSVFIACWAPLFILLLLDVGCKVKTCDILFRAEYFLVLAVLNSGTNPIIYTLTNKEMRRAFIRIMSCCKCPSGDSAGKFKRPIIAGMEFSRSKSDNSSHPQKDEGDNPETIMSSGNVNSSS
Target sequence in this assay (P32121 whole entry partner, the tested form may be a part): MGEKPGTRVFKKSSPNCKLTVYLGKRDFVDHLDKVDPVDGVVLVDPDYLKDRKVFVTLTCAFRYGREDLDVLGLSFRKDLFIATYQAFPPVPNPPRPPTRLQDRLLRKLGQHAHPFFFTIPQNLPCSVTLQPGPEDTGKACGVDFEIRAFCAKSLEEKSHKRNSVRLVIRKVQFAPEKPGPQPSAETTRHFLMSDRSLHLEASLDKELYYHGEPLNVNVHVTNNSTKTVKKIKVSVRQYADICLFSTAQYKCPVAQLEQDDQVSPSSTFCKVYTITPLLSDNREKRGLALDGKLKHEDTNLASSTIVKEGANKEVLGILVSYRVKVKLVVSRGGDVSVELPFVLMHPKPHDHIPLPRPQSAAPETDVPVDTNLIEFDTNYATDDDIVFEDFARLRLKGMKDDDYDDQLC

S1P1 [2] = target: T2, S1P1; experiment: Tango β-arrestin Recruitment Assay in U2OS cells (Assay 2b); type: cell-based; set-up: linker with TEV protease (N1a) cleavage site (C); conditions: Tango β-arrestin Recruitment Assay, read-out: Assay 2b EC50
Outline: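 U2OS cells expressing S1P1 and reporter, serum-starved 48 h, treated with compound (10-point 3-fold series, top 1 μM, 1% DMSO) overnight at 37 °C; β-lactamase substrate added 2 h at room temperature. F460/F530 ratio normalised to 1 μM S1P (100%) and DMSO; EC50 from concentration-response.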
Target sequence in this assay (P21453 whole entry, the tested form may be a part): as the sequence (P21453 whole entry, the tested form may be a part) above
Target sequence in this assay (P32121 whole entry partner, the tested form may be a part): as the sequence (P32121 whole entry partner, the tested form may be a part) above

S1P1 [3] = target: T2, S1P1; experiment: CNG cAMP Assay (Assay 1); type: cell-based; set-up: host or cells: HEK293 cells expressing the CNG channel; conditions: read-out: Assay 1 EC50
Outline: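 HEK293 cells expressing CNG channel and S1P1, membrane-potential dye loaded; compounds (top 10 μM, 10-point 3-fold, 1.8% DMSO) added with 25 μM Ro 20-1724, 500 nM NECA and 10 nM S1P for 90 min. T90/T0 fluorescence (Ex 350/Em 590 nm) normalised to NECA-alone vs DMSO; EC50 fitted.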
Target sequence in this assay (P21453 whole entry, the tested form may be a part): as the sequence (P21453 whole entry, the tested form may be a part) above

T1 sequence (P21453 whole entry): as the sequence (P21453 whole entry, the tested form may be a part) above

Compound	EC50 (hS1P1R (hEdg1))	EC50 (S1P1 [1])	EC50 (S1P1 [2])	EC50 (S1P1 [3])
OCCOc1cc(Cl)c(-c2noc(-c3cn4cc(C(F)(F)F)cc(Br)c4n3)n2)cc1Cl [Example 277, 2-[(4-{5-[8-bromo-6-(trifluoromethyl)imidazo[1,2-a]pyridin-2-yl]-1,2,4-oxadiazol-3-yl}-2,5-dichlorophenyl)oxy]ethanol]	≤ 100 nM	≤ 100 nM	≤ 100 nM	–
OCCCc1cc(Cl)c(-c2noc(-c3cn4cc(C(F)(F)F)cc(Cl)c4n3)n2)cc1Cl [Example 167, 3-(2,5-dichloro-4-{5-[8-chloro-6-(trifluoromethyl)imidazo[1,2-a]pyridin-2-yl]-1,2,4-oxadiazol-3-yl}phenyl)propan-1-ol]	≤ 100 nM	≤ 100 nM	≤ 100 nM	–
C[C@@H](O)COc1cc(Cl)c(-c2noc(-c3cn4cc(C(F)(F)F)cc(Cl)c4n3)n2)cc1Cl [Example 295, (2R)-1-[(2,5-dichloro-4-{5-[8-chloro-6-(trifluoromethyl)imidazo[1,2-a]pyridin-2-yl]-1,2,4-oxadiazol-3-yl}phenyl)oxy]propan-2-ol]	≤ 100 nM	≤ 100 nM	≤ 100 nM	–
Cc1cc(CCC(=O)O)c(Cl)cc1-c1noc(-c2cn3cc(C(F)(F)F)cc(Br)c3n2)n1 [Example 196, 3-(4-{5-[8-bromo-6-(trifluoromethyl)imidazo[1,2-a]pyridin-2-yl]-1,2,4-oxadiazol-3-yl}-2-chloro-5-methylphenyl)propanoic acid]	≤ 100 nM	≤ 100 nM	≤ 100 nM	≤ 100 nM
OC[C@H](O)COc1cc(Cl)c(-c2noc(-c3cn4cc(C(F)(F)F)cc(Br)c4n3)n2)cc1Cl [Entry 33]	≤ 100 nM	≤ 100 nM	≤ 100 nM	–
CC(C)(O)COc1cc(Cl)c(-c2noc(-c3cn4cc(C(F)(F)F)cc(Br)c4n3)n2)cc1Cl [Example 287, 1-[(4-{5-[8-bromo-6-(trifluoromethyl)imidazo[1,2-a]pyridin-2-yl]-1,2,4-oxadiazol-3-yl}-2,5-dichlorophenyl)oxy]-2-methylpropan-2-ol]	100 to 500 nM	≤ 100 nM	≤ 100 nM	–
OCC(O)COc1ccc(-c2noc(-c3cn4cc(C(F)(F)F)cc(Cl)c4n3)n2)c(Cl)c1 (stereo not shown) [Example 194, 3-[(3-chloro-4-{5-[8-chloro-6-(trifluoromethyl)imidazo[1,2-a]pyridin-2-yl]-1,2,4-oxadiazol-3-yl}phenyl)oxy]propane-1,2-diol]	500 to 1000 nM	≤ 100 nM	–	≤ 100 nM
OCC(O)COc1cc(Cl)c(-c2noc(-c3cn4cc(C(F)(F)F)cc(Cl)c4n3)n2)cc1F (stereo not shown) [Example 198, 3-[(5-chloro-4-{5-[8-chloro-6-(trifluoromethyl)imidazo[1,2-a]pyridin-2-yl]-1,2,4-oxadiazol-3-yl}-2-fluorophenyl)oxy]propane-1,2-diol]	≤ 100 nM	≤ 100 nM	–	≤ 100 nM
O=C(O)CCc1c(Cl)cc(-c2nnc(-c3cn4cc(C(F)(F)F)cc(Cl)c4n3)s2)cc1Cl [Example 206, 3-(2,6-dichloro-4-{5-[8-chloro-6-(trifluoromethyl)imidazo[1,2-a]pyridin-2-yl]-1,3,4-thiadiazol-2-yl}phenyl)propanoic acid]	1000 to 5000 nM	≤ 100 nM	–	–

The remaining lines, values ahead:

EC50 (hS1P1R (hEdg1))	EC50 (S1P1 [1])	EC50 (S1P1 [2])	EC50 (S1P1 [3])	Compound
≤ 100 nM	≤ 100 nM	≤ 100 nM	–	OCC(O)COc1cc(Cl)c(-c2nc(-c3cn4cc(C(F)(F)F)cc(Cl)c4n3)no2)cc1Cl (stereo not shown) [Entry 50]
≤ 100 nM	≤ 100 nM	≤ 100 nM	–	OC(CF)COc1cc(Cl)c(-c2noc(-c3cn4cc(C(F)(F)F)cc(Cl)c4n3)n2)cc1Cl (stereo not shown) [Example 118, 1-[(2,5-dichloro-4-{5-[8-chloro-6-(trifluoromethyl)imidazo[1,2-a]pyridin-2-yl]-1,2,4-oxadiazol-3-yl}phenyl)oxy]-3-fluoropropan-2-ol]
500 to 1000 nM	≤ 100 nM	–	≤ 100 nM	O=C(O)C1CC1c1cc(Cl)c(-c2noc(-c3cn4cc(C(F)(F)F)cc(Br)c4n3)n2)cc1F (stereo not shown) [Example 89, 2-(4-{5-[8-bromo-6-(trifluoromethyl)imidazo[1,2-a]pyridin-2-yl]-1,2,4-oxadiazol-3-yl}-5-chloro-2-fluorophenyl)cyclopropanecarboxylic acid]
≤ 100 nM	≤ 100 nM	≤ 100 nM	–	C[C@H](O)COc1cc(Cl)c(-c2noc(-c3cn4cc(C(F)(F)F)cc(Cl)c4n3)n2)cc1Cl [Entry 38]
≤ 100 nM	≤ 100 nM	≤ 100 nM	–	OCCCOc1cc(Cl)c(-c2noc(-c3cn4cc(C(F)(F)F)cc(Cl)c4n3)n2)cc1Cl [Example 105, 3-[(2,5-dichloro-4-{5-[8-chloro-6-(trifluoromethyl)imidazo[1,2-a]pyridin-2-yl]-1,2,4-oxadiazol-3-yl}phenyl)oxy]propan-1-ol]
100 to 500 nM	≤ 100 nM	≤ 100 nM	≤ 100 nM	CC(O)COc1cc(Cl)c(-c2noc(-c3cn4cc(C(F)(F)F)cc(Cl)c4n3)n2)cc1Cl (stereo not shown) [Example 292, 1-[(2,5-dichloro-4-{5-[8-chloro-6-(trifluoromethyl)imidazo[1,2-a]pyridin-2-yl]-1,2,4-oxadiazol-3-yl}phenyl)oxy]propan-2-ol]
≤ 100 nM	≤ 100 nM	≤ 100 nM	–	OCC(CO)COc1cc(Cl)c(-c2noc(-c3cn4cc(C(F)(F)F)cc(Cl)c4n3)n2)cc1Cl [Example 278, 2-{[(2,5-dichloro-4-{5-[8-chloro-6-(trifluoromethyl)imidazo[1,2-a]pyridin-2-yl]-1,2,4-oxadiazol-3-yl}phenyl)oxy]methyl}propane-1,3-diol]
1000 to 5000 nM	≤ 100 nM	–	–	O=C(O)CCc1cc(Cl)c(-c2nnc(-c3cn4cc(I)cc(Cl)c4n3)s2)cc1F [Example 207, 3-{5-chloro-4-[5-(8-chloro-6-iodoimidazo[1,2-a]pyridin-2-yl)-1,3,4-thiadiazol-2-yl]-2-fluorophenyl}propanoic acid]
≤ 100 nM	≤ 100 nM	≤ 100 nM	≤ 100 nM	O=C(O)CCc1cc(Cl)c(-c2noc(-c3cn4cc(C(F)(F)F)cc(Br)c4n3)n2)cc1Cl [Entry 68]
1000 to 5000 nM	≤ 100 nM	≤ 100 nM	–	O=C(O)CCc1cc(Cl)c(-c2nnc(-c3cn4cc(C(F)(F)F)cc(Br)c4n3)s2)cc1Cl [Example 286, 3-(4-{5-[8-bromo-6-(trifluoromethyl)imidazo[1,2-a]pyridin-2-yl]-1,3,4-thiadiazol-2-yl}-2,5-dichlorophenyl)propanoic acid]
500 to 1000 nM	≤ 100 nM	–	≤ 100 nM	O=C(O)CCc1c(Cl)cc(-c2noc(-c3cn4cc(C(F)(F)F)cc(Cl)c4n3)n2)cc1Cl [Entry 21]
100 to 500 nM	≤ 100 nM	≤ 100 nM	–	CC(C)(O)COc1cc(Cl)c(-c2noc(-c3cn4cc(C(F)(F)F)cc(Cl)c4n3)n2)cc1Cl [Example 166, 1-[(2,5-dichloro-4-{5-[8-chloro-6-(trifluoromethyl)imidazo[1,2-a]pyridin-2-yl]-1,2,4-oxadiazol-3-yl}phenyl)oxy]-2-methylpropan-2-ol]
≤ 100 nM	≤ 100 nM	≤ 100 nM	–	OCC(O)COc1cc(Cl)c(-c2noc(-c3cn4cc(C(F)(F)F)cc(Br)c4n3)n2)cc1Cl (stereo not shown) [Example 212, 3-[(4-{5-[8-bromo-6-(trifluoromethyl)imidazo[1,2-a]pyridin-2-yl]-1,2,4-oxadiazol-3-yl}-2,5-dichlorophenyl)oxy]propane-1,2-diol]

Source: US20100160369A1, “S1P1 Agonists and Methods of Making And Using” (EXELIXIS, INC., priority 2008, published 2010)
